{
  "source": "patent US20200397894A1",
  "about": "“COMPOSITIONS AND METHODS FOR TREATING CANCER” (University of Virginia Patent Foundation, priority 2016, published 2020)",
  "assay_type_in_all_cases": "cell-based, human",
  "key": {"DM93 cells [1]": {"test_system": "DM93 cells", "test": "BrdU staining and flow cytometry (rereplication)", "details": "DM93, pevonedistat", "procedure": "The effects of pevonedistat and/or silencing of cell cycle-associated proteins on cell cycle distribution or rereplication were assessed by flow cytometry according to the manufacturer's instructions. Different melanoma lines were transfected with si-GL2, si-CDT2, si-CDT1, si-SET8, si-p21, or si-geminin for a time ranging from 24 to 96 hours. At the end of treatment, cells were pulsed with BrdU (10 nM) for 1 hour in the dark prior to harvesting. Cells were washed with PBS and staining solution before the fixation and permeabilization steps according to the manufacturer's instructions. Cells were subsequently stained with anti-BrdU antibody solution for 20 minutes at room temperature, washed, and stained with 7-AAD solution for 30 minutes at 4° C. The cells were resuspended in 1 ml of staining buffer and kept overnight at 4° C. before analysis. Samples were analyzed on a FFACSCAN™ (Becton, Dickinson and Company, Franklin Lakes, N.J., United States of America), and different phases of the cell cycle were determined using FLOWJO® (FLOWJO, LLC, Ashland, Oreg., United States of America) and ModFit (Verity Software House, Topsham, Me., United States of America) software."}, "VMM39 cells": {"test_system": "VMM39 cells", "test": "Rereplication by propidium iodide staining and FACS", "details": "VMM39, 1 μM pevonedistat", "procedure": "(§1) The effects of pevonedistat, vemurafenib, and/or silencing of various cell cycle-associated proteins by siRNA on cell cycle distribution and rereplication were assessed by propidium iodide staining and flow cytometry of asynchronous melanoma cultures. Synchronization of cells was not employed to avoid bias and to be able to measure the impact of these perturbations on proliferating cancer cells. Briefly, asynchronous melanoma cell lines were treated with pevonedistat or vemurafenib, or transfected with si-CDT1, si-CDT2, si-SET8, si-p21, sigeminin, si-EMI1, or si-GL2 for a time ranging from 24 to 96 hours. Cells were washed with cold PBS, harvested, and fixed in 70% (v/v) ethanol. Cells were subsequently treated with 20 μg of DNase-free RNase and stained with propidium iodide according to instructions of the manufacturer. Samples were analyzed on a FACSCAN™ (Becton, Dickinson and Company, Franklin Lakes, N.J., United States of America) and G0-G1, S, and G2-M fractions were segmented, and apoptotic (sub-G1 DNA content) and rereplicating (>G2/M DNA content) fractions were determined using FLOWJO® (FLOWJO, LLC, Ashland, Oreg., United States of America) and ModFit (Verity Software House, Topsham, Me., United States of America) software."}, "VMM1 cells": {"test_system": "VMM1 cells", "test": "Rereplication by propidium iodide staining and FACS", "procedure": "as §1"}, "SK-MEL-28 cells": {"test_system": "SK-MEL-28 cells", "test": "Rereplication by propidium iodide staining and FACS", "details": "SK-MEL-28, 1 μM pevonedistat", "procedure": "as §1"}, "VMM18 cells": {"test_system": "VMM18 cells", "test": "Rereplication by propidium iodide staining and FACS", "details": "VMM18, 1 μM pevonedistat", "procedure": "as §1"}, "DM93 cells [2]": {"test_system": "DM93 cells", "test": "Cell cycle distribution and rereplication by propidium iodide staining and FACS", "details": "for DM93 cells exhibiting >4N DNA content / Percent Cells in S and G2/M / Percent Cells in sub-G1: 1 μM pevonedistat; for Percent Cells in S and G2/M / Percent Cells in sub-G1 / Percent of Cells in S and G2/M / Percent of Cells in sub-G1: DM93 cells; for rereplication after transient exposure and washout: analyzed 48 hours later", "procedure": "as §1, with “Briefly, asynchronous melanoma cell lines were treated with pevonedistat or vemurafenib, or transfected with si-CDT1, si-CDT2, si-SET8, si-p21, sigeminin, si-EMI1, or si-GL2 for a time ranging from 24 to 96 hours.” left out"}, "[3]": {"test_system": "DM331 and SK-MEL-24 cells from PLX4720-resistant tumors", "test": "In vitro sensitivity of cells extracted ex vivo from PLX4720-resistant tumors", "details": "DM331 and SK-MEL-24 cells extracted ex vivo", "procedure": "Proliferation and viability of cultured cells was measured by CELLTITER96® Non-radioactive Cell Proliferation Assay (Promega Corporation; Madison, Wis., United States of America). Briefly, various wild type and mutant BRAF melanoma cells were seeded in 96 well plates and treated with pevonedistat, vemurafenib, or the combination pevonedistat and vemurafenib at various concentrations. Control cells were treated with DMSO. 96 hours following treatment, cells were stained with the dye solution according to the manufacturer's protocol. Absorbance was recorded at 570 nm and growth curves were established. […] Cells were counted every 24 hours using a COUNTESS™ Automated Cell Counter (INVITROGEN™, Carlsbad, Calif., United States of America), and harvested at the indicated times for PI staining and FACS analysis (cell cycle profile) or for immunoblotting.\nThe effects of pevonedistat, vemurafenib, and/or silencing of various cell cycle-associated proteins by siRNA on cell cycle distribution and rereplication were assessed by propidium iodide staining and flow cytometry of asynchronous melanoma cultures. […]"}, "[4]": {"details": "24 hours, 0.025 μM pevonedistat"}, "[5]": {"details": "24 hours, 0.100 μM pevonedistat"}, "[6]": {"details": "24 hours, 0.500 μM pevonedistat (first row so printed, r9)"}, "[7]": {"details": "24 hours, 0.500 μM pevonedistat (r11)"}, "[8]": {"details": "24 hours, 0.750 μM pevonedistat"}, "[9]": {"details": "24 hours, 1.000 μM pevonedistat"}, "[10]": {"details": "24 hours, 2.000 μM pevonedistat"}},
  "data": [
    {"smiles": "NS(=O)(=O)OCC1CC(n2ccc3c(NC4CCc5ccccc54)ncnc32)CC1O", "note": "[pevonedistat, ((1S,2S,4R)-4-(4-((1S)-2,3-Dihydro-H-inden-1-ylamino)-7H-pyrrolo(2,3-d)pyrimidin-7-yl)-2-hydroxycyclopentyl)methyl sulphamate]", "values": [
      {"measurement": "cells with rereplication within the same cell cycle (BrdU labeling)", "setting": "DM93 cells [1]; 24 hours", "result": 17.3, "unit": "%"},
      {"measurement": "cells with rereplication within the same cell cycle (BrdU labeling)", "setting": "DM93 cells [1]; 48 hours", "result": 61.7, "unit": "%"},
      {"measurement": "Percent of Cells in S and G2/M at 24 hours", "setting": "VMM39 cells; 24 hours", "result": 37.9, "unit": "%"},
      {"measurement": "Percent of Cells in S and G2/M at 72 Hours", "setting": "VMM39 cells; 72 hours", "result": 33.8, "unit": "%"},
      {"measurement": "Percent of Cells in S and G2/M at 24 hours", "setting": "VMM1 cells; VMM1, 1 μM pevonedistat, 24 hours", "result": 7.72, "unit": "%"},
      {"measurement": "Percent of Cells in S and G2/M at 72 Hours", "setting": "VMM1 cells; VMM1, 1 μM pevonedistat, 72 hours", "result": 30.8, "unit": "%"},
      {"measurement": "cells undergoing rereplication", "setting": "VMM1 cells; VMM1, 72 hours post-treatment", "result": 25, "unit": "%"},
      {"measurement": "Percent of Cells in S and G2/M at 24 hours", "setting": "SK-MEL-28 cells; 24 hours", "result": 38.7, "unit": "%"},
      {"measurement": "Percent of Cells in S and G2/M at 72 Hours", "setting": "SK-MEL-28 cells; 72 hours", "result": 55.9, "unit": "%"},
      {"measurement": "Percent of Cells in S and G2/M at 24 hours", "setting": "VMM18 cells; 24 hours", "result": 7.83, "unit": "%"},
      {"measurement": "Percent of Cells in S and G2/M at 72 Hours", "setting": "VMM18 cells; 72 hours", "result": 16.9, "unit": "%"},
      {"measurement": "DM93 cells exhibiting >4N DNA content", "setting": "DM93 cells [2]; by 72 hours of treatment", "result": 68, "unit": "%"},
      {"measurement": "DM93 cells exhibiting >4N DNA content", "setting": "DM93 cells [2]; within 24 hours", "result": 18, "unit": "%"},
      {"measurement": "cells undergoing rereplication", "setting": "DM93 cells [2]; DM93, 1 μM pevonedistat for 48 hours", "result": 45, "unit": "%"},
      {"measurement": "Percent of Cells in S and G2/M at 24 hours", "setting": "DM93 cells [2]; DM93, 1 μM pevonedistat, 24 hours", "result": 27.2, "unit": "%"},
      {"measurement": "Percent of Cells in S and G2/M at 72 Hours", "setting": "DM93 cells [2]; DM93, 1 μM pevonedistat, 72 hours", "result": 59.2, "unit": "%"},
      {"measurement": "cells undergoing rereplication", "setting": "DM93 cells [2]; DM93, 72 hours post-treatment", "result": 60, "unit": "%"},
      {"measurement": "lowest drug concentration at which rereplication was observed", "setting": "DM93 cells [2]; DM93, analyzed at 24 hours", "result": 500, "unit": "nM"},
      {"measurement": "cells with sub-G1 DNA content", "setting": "DM93 cells [2]; DM93, pevonedistat, 72 hours", "result": "~7", "unit": "%"},
      {"measurement": "Percent Cells in S and G2/M", "setting": "DM93 cells [2]; 3 hours", "result": 4.05, "unit": "%"},
      {"measurement": "Percent Cells in sub-G1", "setting": "DM93 cells [2]; 3 hours", "result": 1.94, "unit": "%"},
      {"measurement": "Percent Cells in S and G2/M", "setting": "DM93 cells [2]; 6 hours", "result": 13, "unit": "%"},
      {"measurement": "Percent Cells in sub-G1", "setting": "DM93 cells [2]; 6 hours", "result": 0.49, "unit": "%"},
      {"measurement": "Percent Cells in S and G2/M", "setting": "DM93 cells [2]; 24 hours", "result": 17, "unit": "%"},
      {"measurement": "Percent Cells in sub-G1", "setting": "DM93 cells [2]; 24 hours", "result": 1.4, "unit": "%"},
      {"measurement": "Percent Cells in S and G2/M", "setting": "DM93 cells [2]; 48 hours", "result": 64.7, "unit": "%"},
      {"measurement": "Percent Cells in sub-G1", "setting": "DM93 cells [2]; 48 hours", "result": 2.08, "unit": "%"},
      {"measurement": "Percent Cells in S and G2/M", "setting": "DM93 cells [2]; 72 hours", "result": 68.3, "unit": "%"},
      {"measurement": "Percent Cells in sub-G1", "setting": "DM93 cells [2]; 72 hours", "result": 7.08, "unit": "%"},
      {"measurement": "Percent of Cells in S and G2/M", "setting": "DM93 cells [2]; [4]", "result": 0.57, "unit": "%"},
      {"measurement": "Percent of Cells in sub-G1", "setting": "DM93 cells [2]; [4]", "result": 1.72, "unit": "%"},
      {"measurement": "Percent of Cells in S and G2/M", "setting": "DM93 cells [2]; [5]", "result": 2.21, "unit": "%"},
      {"measurement": "Percent of Cells in sub-G1", "setting": "DM93 cells [2]; [5]", "result": 5.62, "unit": "%"},
      {"measurement": "Percent of Cells in S and G2/M", "setting": "DM93 cells [2]; [6]", "result": 1.11, "unit": "%"},
      {"measurement": "Percent of Cells in sub-G1", "setting": "DM93 cells [2]; [6]", "result": 1.61, "unit": "%"},
      {"measurement": "Percent of Cells in S and G2/M", "setting": "DM93 cells [2]; [7]", "result": 18.1, "unit": "%"},
      {"measurement": "Percent of Cells in sub-G1", "setting": "DM93 cells [2]; [7]", "result": 4.49, "unit": "%"},
      {"measurement": "Percent of Cells in S and G2/M", "setting": "DM93 cells [2]; [8]", "result": 47.4, "unit": "%"},
      {"measurement": "Percent of Cells in sub-G1", "setting": "DM93 cells [2]; [8]", "result": 2.05, "unit": "%"},
      {"measurement": "Percent of Cells in S and G2/M", "setting": "DM93 cells [2]; [9]", "result": 56.6, "unit": "%"},
      {"measurement": "Percent of Cells in sub-G1", "setting": "DM93 cells [2]; [9]", "result": 1.21, "unit": "%"},
      {"measurement": "Percent of Cells in S and G2/M", "setting": "DM93 cells [2]; [10]", "result": 66, "unit": "%"},
      {"measurement": "Percent of Cells in sub-G1", "setting": "DM93 cells [2]; [10]", "result": 0.53, "unit": "%"},
      {"measurement": "rereplication after transient exposure and washout", "setting": "DM93 cells [2]; treated 12 hours", "result": 18, "unit": "%"},
      {"measurement": "rereplication after transient exposure and washout", "setting": "DM93 cells [2]; treated 24 hours", "result": 60, "unit": "%"},
      {"measurement": "sensitivity in vitro of cells from PLX4720-resistant tumors", "setting": "[3]", "result": "sensitive to pevonedistat-induced rereplication and inhibition"}
    ]}
  ]
}
